{"source": "paper PMC7553946", "about": "“Soticlestat, a novel cholesterol 24-hydroxylase inhibitor shows a therapeutic potential for neural hyperexcitation in mice” (Scientific Reports, 2020)", "key": {"Histamine H2": {"molecular_target": "T1, Histamine H2 (Homo sapiens, UniProt P25021)", "T1 construct": "gene HRH2", "experiment": "biochemical", "design": "radioligand displacement binding panel of CNS receptors and transporters, single concentration", "settings": "read-out: Inhibition (%)", "description": "(§1) Soticlestat (Supplementary Fig. S1) was discovered as a result of an iterative medicinal chemistry effort following high-throughput screening of an in vitro enzyme assay (Fig. 1A,B)."}, "Muscarinic M1": {"molecular_target": "T2, Muscarinic M1 (Homo sapiens, UniProt P11229)", "T2 construct": "gene CHRM1", "experiment": "biochemical", "design": "radioligand displacement binding panel of CNS receptors and transporters, single concentration", "settings": "read-out: Inhibition (%)", "description": "as §1"}, "Opiate μ (OP3, MOP)": {"molecular_target": "T3, Opiate μ (OP3, MOP) (Homo sapiens, UniProt P35372)", "T3 construct": "gene OPRM1", "T3 sequence (P35372 whole entry)": "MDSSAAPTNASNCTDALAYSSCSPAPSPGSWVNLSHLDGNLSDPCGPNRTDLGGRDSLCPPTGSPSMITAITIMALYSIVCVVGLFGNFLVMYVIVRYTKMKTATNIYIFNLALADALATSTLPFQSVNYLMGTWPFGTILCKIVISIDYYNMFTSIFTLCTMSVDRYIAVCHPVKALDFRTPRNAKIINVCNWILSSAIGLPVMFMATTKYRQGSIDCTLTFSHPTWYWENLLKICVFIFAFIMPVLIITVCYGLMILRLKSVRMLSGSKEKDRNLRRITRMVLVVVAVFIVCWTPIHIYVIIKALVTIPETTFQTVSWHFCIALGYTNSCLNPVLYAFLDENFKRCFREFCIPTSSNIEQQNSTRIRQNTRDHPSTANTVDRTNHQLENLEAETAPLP", "experiment": "biochemical", "design": "radioligand displacement binding panel of CNS receptors and transporters, single concentration", "settings": "read-out: Inhibition (%)", "description": "as §1"}, "Dopamine transporter": {"molecular_target": "T4, Dopamine transporter (Homo sapiens, UniProt Q01959)", "T4 construct": "gene SLC6A3", "experiment": "biochemical", "design": "radioligand displacement binding panel of CNS receptors and transporters, single concentration", "settings": "read-out: Inhibition (%)", "description": "as §1"}, "Bradykinin B1": {"molecular_target": "T5, Bradykinin B1 (Homo sapiens, UniProt P46663)", "T5 construct": "gene BDKRB1", "experiment": "biochemical", "design": "radioligand displacement binding panel of CNS receptors and transporters, single concentration", "settings": "read-out: Inhibition (%)", "description": "as §1"}, "Angiotensin AT2": {"molecular_target": "T6, Angiotensin AT2 (Homo sapiens, UniProt P50052)", "T6 construct": "gene AGTR2", "experiment": "biochemical", "design": "radioligand displacement binding panel of CNS receptors and transporters, single concentration", "settings": "read-out: Inhibition (%)", "description": "as §1"}, "[1]": {"molecular_target": "T7, Norepinephrine transporter (Homo sapiens, UniProt P23975)", "T7 construct": "gene SLC6A2", "experiment": "biochemical", "design": "radioligand displacement binding panel of CNS receptors and transporters, single concentration", "settings": "read-out: Inhibition (%)", "description": "as §1"}, "Adenosine A2B": {"molecular_target": "T8, Adenosine A2B (Homo sapiens, UniProt P29275)", "T8 construct": "gene ADORA2B", "T8 sequence (P29275 whole entry)": "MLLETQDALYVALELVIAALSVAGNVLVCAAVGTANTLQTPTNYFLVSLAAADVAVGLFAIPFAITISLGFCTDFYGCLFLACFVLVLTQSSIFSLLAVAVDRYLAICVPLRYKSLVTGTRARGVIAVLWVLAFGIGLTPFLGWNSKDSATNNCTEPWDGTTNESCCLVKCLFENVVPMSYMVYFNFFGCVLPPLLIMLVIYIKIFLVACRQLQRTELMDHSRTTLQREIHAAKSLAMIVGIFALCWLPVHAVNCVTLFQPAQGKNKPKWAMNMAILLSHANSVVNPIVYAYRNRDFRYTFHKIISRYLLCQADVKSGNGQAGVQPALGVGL", "experiment": "biochemical", "design": "radioligand displacement binding panel of CNS receptors and transporters, single concentration", "settings": "read-out: Inhibition (%)", "description": "as §1"}, "Histamine H1": {"molecular_target": "T9, Histamine H1 (Homo sapiens, UniProt P35367)", "T9 construct": "gene HRH1", "T9 sequence (P35367 whole entry)": "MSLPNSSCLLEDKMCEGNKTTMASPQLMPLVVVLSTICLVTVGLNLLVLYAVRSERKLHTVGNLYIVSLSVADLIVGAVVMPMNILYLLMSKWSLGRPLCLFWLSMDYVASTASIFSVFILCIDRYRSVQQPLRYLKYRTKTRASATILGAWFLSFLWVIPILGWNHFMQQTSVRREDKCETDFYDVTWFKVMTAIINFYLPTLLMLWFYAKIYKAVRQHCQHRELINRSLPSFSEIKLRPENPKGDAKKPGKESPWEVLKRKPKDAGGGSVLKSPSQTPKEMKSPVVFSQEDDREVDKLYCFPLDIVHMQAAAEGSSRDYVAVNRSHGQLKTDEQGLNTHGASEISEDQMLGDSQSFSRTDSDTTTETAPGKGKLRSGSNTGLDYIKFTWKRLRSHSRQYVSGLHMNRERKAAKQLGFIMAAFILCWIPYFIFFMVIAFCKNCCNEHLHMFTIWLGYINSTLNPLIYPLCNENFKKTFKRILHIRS", "experiment": "biochemical", "design": "radioligand displacement binding panel of CNS receptors and transporters, single concentration", "settings": "read-out: Inhibition (%)", "description": "as §1"}, "Adrenergic β2": {"molecular_target": "T10, Adrenergic β2 (Homo sapiens, UniProt P07550)", "T10 construct": "gene ADRB2", "experiment": "biochemical", "design": "radioligand displacement binding panel of CNS receptors and transporters, single concentration", "settings": "read-out: Inhibition (%)", "description": "as §1"}, "Muscarinic M3": {"molecular_target": "T11, Muscarinic M3 (Homo sapiens, UniProt P20309)", "T11 construct": "gene CHRM3", "T11 sequence (P20309 whole entry)": "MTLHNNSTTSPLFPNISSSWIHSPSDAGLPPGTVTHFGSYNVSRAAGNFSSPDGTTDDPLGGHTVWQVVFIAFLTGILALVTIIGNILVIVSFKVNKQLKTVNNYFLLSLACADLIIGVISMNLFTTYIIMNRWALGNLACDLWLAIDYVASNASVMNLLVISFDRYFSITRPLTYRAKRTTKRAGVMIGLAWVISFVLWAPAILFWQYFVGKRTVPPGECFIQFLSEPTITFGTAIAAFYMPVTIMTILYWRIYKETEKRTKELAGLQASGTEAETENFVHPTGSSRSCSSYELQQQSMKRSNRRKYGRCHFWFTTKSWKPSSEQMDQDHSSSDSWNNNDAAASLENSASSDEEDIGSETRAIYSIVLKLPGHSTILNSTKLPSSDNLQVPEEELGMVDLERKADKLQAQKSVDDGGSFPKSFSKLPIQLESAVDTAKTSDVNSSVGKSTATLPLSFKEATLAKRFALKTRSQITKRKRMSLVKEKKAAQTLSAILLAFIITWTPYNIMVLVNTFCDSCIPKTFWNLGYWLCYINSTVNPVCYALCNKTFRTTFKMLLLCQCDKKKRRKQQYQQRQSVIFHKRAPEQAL", "experiment": "biochemical", "design": "radioligand displacement binding panel of CNS receptors and transporters, single concentration", "settings": "read-out: Inhibition (%)", "description": "as §1"}, "5-HT2B": {"molecular_target": "T12, 5-HT2B (Homo sapiens, UniProt P41595)", "T12 construct": "gene HTR2B", "experiment": "biochemical", "design": "radioligand displacement binding panel of CNS receptors and transporters, single concentration", "settings": "read-out: Inhibition (%)", "description": "as §1"}, "Opiate κ (OP2, KOP)": {"molecular_target": "T13, Opiate κ (OP2, KOP) (Homo sapiens, UniProt P41145)", "T13 construct": "gene OPRK1", "experiment": "biochemical", "design": "radioligand displacement binding panel of CNS receptors and transporters, single concentration", "settings": "read-out: Inhibition (%)", "description": "as §1"}, "Adrenergic β3": {"molecular_target": "T14, Adrenergic β3 (Homo sapiens, UniProt P13945)", "T14 construct": "gene ADRB3", "T14 sequence (P13945 whole entry)": "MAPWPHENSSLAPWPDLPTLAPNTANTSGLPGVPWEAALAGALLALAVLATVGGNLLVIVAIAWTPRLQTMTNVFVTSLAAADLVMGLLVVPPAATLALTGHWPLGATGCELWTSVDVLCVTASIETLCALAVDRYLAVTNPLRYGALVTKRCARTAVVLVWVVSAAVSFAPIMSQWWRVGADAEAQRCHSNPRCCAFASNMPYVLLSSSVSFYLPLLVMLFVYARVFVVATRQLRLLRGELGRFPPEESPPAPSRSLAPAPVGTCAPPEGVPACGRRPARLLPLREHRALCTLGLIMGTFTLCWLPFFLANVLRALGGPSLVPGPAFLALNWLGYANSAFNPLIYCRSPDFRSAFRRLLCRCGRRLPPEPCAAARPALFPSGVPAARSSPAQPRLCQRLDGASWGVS", "experiment": "biochemical", "design": "radioligand displacement binding panel of CNS receptors and transporters, single concentration", "settings": "read-out: Inhibition (%)", "description": "as §1"}, "Cannabinoid CB1": {"molecular_target": "T15, Cannabinoid CB1 (Homo sapiens, UniProt P21554)", "T15 construct": "gene CNR1", "T15 sequence (P21554 whole entry)": "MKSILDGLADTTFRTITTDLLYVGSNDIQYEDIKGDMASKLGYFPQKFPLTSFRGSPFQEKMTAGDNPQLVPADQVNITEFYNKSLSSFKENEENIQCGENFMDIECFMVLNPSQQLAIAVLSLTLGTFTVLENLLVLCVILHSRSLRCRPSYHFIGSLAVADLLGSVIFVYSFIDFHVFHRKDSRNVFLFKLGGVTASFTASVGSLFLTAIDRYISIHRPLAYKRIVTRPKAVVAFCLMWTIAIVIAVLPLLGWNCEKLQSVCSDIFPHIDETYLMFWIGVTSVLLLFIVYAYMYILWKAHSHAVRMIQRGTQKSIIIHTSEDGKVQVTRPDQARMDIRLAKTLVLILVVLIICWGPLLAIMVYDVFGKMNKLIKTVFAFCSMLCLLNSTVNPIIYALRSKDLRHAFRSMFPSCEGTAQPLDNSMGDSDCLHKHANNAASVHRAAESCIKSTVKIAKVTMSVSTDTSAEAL", "experiment": "biochemical", "design": "radioligand displacement binding panel of CNS receptors and transporters, single concentration", "settings": "read-out: Inhibition (%)", "description": "as §1"}, "Dopamine D1": {"molecular_target": "T16, Dopamine D1 (Homo sapiens, UniProt P21728)", "T16 construct": "gene DRD1", "T16 sequence (P21728 whole entry)": "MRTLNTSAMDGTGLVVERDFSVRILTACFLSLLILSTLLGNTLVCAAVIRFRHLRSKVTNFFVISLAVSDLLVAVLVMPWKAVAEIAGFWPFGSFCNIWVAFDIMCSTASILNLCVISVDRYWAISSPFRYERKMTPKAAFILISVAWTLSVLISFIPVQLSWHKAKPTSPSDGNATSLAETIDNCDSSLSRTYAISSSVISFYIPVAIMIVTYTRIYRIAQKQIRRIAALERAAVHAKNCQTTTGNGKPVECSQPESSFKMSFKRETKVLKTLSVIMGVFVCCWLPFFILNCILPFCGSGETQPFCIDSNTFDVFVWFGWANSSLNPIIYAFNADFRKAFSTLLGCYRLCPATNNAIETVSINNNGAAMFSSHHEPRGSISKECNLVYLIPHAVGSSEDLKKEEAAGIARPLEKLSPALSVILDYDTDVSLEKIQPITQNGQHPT", "experiment": "biochemical", "design": "radioligand displacement binding panel of CNS receptors and transporters, single concentration", "settings": "read-out: Inhibition (%)", "description": "as §1"}, "Dopamine D3": {"molecular_target": "T17, Dopamine D3 (Homo sapiens, UniProt P35462)", "T17 construct": "gene DRD3", "T17 sequence (P35462 whole entry)": "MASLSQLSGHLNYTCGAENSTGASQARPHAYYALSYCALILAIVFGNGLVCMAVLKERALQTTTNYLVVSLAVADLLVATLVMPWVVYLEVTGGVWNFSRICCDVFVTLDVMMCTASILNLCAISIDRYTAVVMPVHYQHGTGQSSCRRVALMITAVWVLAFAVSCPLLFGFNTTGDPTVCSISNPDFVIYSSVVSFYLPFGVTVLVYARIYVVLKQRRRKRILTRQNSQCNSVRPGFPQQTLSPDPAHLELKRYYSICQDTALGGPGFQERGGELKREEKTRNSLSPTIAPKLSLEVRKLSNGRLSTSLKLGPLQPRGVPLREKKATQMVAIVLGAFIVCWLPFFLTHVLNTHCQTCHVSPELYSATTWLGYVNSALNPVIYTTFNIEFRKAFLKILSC", "experiment": "biochemical", "design": "radioligand displacement binding panel of CNS receptors and transporters, single concentration", "settings": "read-out: Inhibition (%)", "description": "as §1"}, "Adrenergic β1": {"molecular_target": "T18, Adrenergic β1 (Homo sapiens, UniProt P08588)", "T18 construct": "gene ADRB1", "experiment": "biochemical", "design": "radioligand displacement binding panel of CNS receptors and transporters, single concentration", "settings": "read-out: Inhibition (%)", "description": "as §1"}, "GABA B1A": {"molecular_target": "T19, GABA B1A (Homo sapiens, UniProt Q9UBS5)", "T19 construct": "gene GABBR1; isoform 1A", "T19 sequence (Q9UBS5 whole entry, canonical isoform)": "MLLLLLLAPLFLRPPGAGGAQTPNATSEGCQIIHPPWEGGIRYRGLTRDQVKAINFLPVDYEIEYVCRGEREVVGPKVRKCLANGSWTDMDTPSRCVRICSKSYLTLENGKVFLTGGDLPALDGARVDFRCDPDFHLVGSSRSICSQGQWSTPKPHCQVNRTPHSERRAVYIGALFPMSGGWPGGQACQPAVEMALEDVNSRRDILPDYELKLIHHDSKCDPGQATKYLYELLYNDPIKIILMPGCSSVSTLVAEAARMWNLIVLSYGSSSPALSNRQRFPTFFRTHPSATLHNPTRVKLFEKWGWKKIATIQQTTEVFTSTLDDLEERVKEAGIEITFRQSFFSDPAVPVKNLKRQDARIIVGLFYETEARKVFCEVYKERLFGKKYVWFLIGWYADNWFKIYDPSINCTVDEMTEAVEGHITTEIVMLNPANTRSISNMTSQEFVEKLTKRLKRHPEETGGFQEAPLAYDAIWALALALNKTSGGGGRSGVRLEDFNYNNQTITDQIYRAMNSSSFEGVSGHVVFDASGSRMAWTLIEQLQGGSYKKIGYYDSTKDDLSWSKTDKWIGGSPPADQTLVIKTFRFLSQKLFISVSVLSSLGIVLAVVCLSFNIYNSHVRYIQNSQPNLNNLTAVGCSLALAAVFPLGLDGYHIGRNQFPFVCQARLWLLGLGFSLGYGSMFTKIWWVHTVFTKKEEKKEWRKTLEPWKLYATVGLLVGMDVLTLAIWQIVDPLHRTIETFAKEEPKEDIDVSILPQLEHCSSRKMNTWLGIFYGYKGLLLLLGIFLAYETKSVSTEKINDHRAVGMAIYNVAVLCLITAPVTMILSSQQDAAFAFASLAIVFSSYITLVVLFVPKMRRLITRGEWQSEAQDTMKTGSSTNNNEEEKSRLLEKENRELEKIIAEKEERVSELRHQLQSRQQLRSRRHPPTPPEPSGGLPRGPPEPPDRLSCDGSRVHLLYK", "experiment": "biochemical", "design": "radioligand displacement binding panel of CNS receptors and transporters, single concentration", "settings": "read-out: Inhibition (%)", "description": "as §1"}, "GABA B1B": {"molecular_target": "T20, GABA B1B (Homo sapiens, UniProt Q9UBS5)", "T20 construct": "gene GABBR1; isoform 1B", "T20 sequence (Q9UBS5 whole entry, canonical isoform)": "as above", "experiment": "biochemical", "design": "radioligand displacement binding panel of CNS receptors and transporters, single concentration", "settings": "read-out: Inhibition (%)", "description": "as §1"}, "Dopamine D4.2": {"molecular_target": "T21, Dopamine D4.2 (Homo sapiens, UniProt P21917)", "T21 construct": "gene DRD4; D4.2 repeat variant", "experiment": "biochemical", "design": "radioligand displacement binding panel of CNS receptors and transporters, single concentration", "settings": "read-out: Inhibition (%)", "description": "as §1"}, "Muscarinic M2": {"molecular_target": "T22, Muscarinic M2 (Homo sapiens, UniProt P08172)", "T22 construct": "gene CHRM2", "experiment": "biochemical", "design": "radioligand displacement binding panel of CNS receptors and transporters, single concentration", "settings": "read-out: Inhibition (%)", "description": "as §1"}, "Vasopressin V1A": {"molecular_target": "T23, Vasopressin V1A (Homo sapiens, UniProt P37288)", "T23 construct": "gene AVPR1A", "T23 sequence (P37288 whole entry)": "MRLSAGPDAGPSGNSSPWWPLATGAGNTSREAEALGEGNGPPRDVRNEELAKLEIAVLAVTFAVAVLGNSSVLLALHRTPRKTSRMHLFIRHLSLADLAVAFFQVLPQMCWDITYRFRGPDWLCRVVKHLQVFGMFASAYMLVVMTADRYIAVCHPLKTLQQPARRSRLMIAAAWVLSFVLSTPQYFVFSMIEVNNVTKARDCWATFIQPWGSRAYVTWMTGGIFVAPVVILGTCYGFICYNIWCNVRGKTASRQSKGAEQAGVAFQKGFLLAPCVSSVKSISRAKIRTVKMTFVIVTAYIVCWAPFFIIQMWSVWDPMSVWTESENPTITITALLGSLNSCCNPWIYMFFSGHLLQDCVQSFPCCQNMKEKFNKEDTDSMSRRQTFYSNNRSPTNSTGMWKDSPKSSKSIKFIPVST", "experiment": "biochemical", "design": "radioligand displacement binding panel of CNS receptors and transporters, single concentration", "settings": "read-out: Inhibition (%)", "description": "as §1"}, "Serotonin transporter": {"molecular_target": "T24, Serotonin transporter (Homo sapiens, UniProt P31645)", "T24 construct": "gene SLC6A4", "experiment": "biochemical", "design": "radioligand displacement binding panel of CNS receptors and transporters, single concentration", "settings": "read-out: Inhibition (%)", "description": "as §1"}, "Dopamine D2L": {"molecular_target": "T25, Dopamine D2L (Homo sapiens, UniProt P14416)", "T25 construct": "gene DRD2; long isoform", "experiment": "biochemical", "design": "radioligand displacement binding panel of CNS receptors and transporters, single concentration", "settings": "read-out: Inhibition (%)", "description": "as §1"}, "[2]": {"molecular_target": "cholesterol 24-hydroxylase (CH24H, CYP46A1) (Homo sapiens, UniProt Q9Y6A2)", "experiment": "[…]cholesterol 24-hydroxylation assay by TLC with lysate of CH24H-expressing cells", "format": "biochemical"}, "[3]": {"molecular_target": "T26, Cholinesterase, Acetyl, ACES (Homo sapiens, UniProt P22303)", "T26 construct": "gene ACHE", "experiment": "biochemical", "design": "enzyme inhibition panel, single concentration", "settings": "read-out: Inhibition (%)", "description": "as §1"}, "Cyclooxygenase (COX-2)": {"molecular_target": "T27, Cyclooxygenase (COX-2) (Homo sapiens, UniProt P35354)", "T27 construct": "gene PTGS2", "experiment": "biochemical", "design": "enzyme inhibition panel, single concentration", "settings": "read-out: Inhibition (%)", "description": "as §1"}, "[4]": {"molecular_target": "T28, Peptidase, Metalloproteinase, Neutral Endopeptidase (Homo sapiens, UniProt P08473)", "T28 construct": "gene MME", "experiment": "biochemical", "design": "enzyme inhibition panel, single concentration", "settings": "read-out: Inhibition (%)", "description": "as §1"}, "MAO A": {"molecular_target": "T29, MAO A (Homo sapiens, UniProt P21397)", "T29 construct": "gene MAOA", "experiment": "biochemical", "design": "enzyme inhibition panel, single concentration", "settings": "read-out: Inhibition (%)", "description": "as §1"}, "Cyclooxygenase (COX-1)": {"molecular_target": "T30, Cyclooxygenase (COX-1) (Homo sapiens, UniProt P23219)", "T30 construct": "gene PTGS1", "experiment": "biochemical", "design": "enzyme inhibition panel, single concentration", "settings": "read-out: Inhibition (%)", "description": "as §1"}, "MAO B": {"molecular_target": "T31, MAO B (Homo sapiens, UniProt P27338)", "T31 construct": "gene MAOB", "experiment": "biochemical", "design": "enzyme inhibition panel, single concentration", "settings": "read-out: Inhibition (%)", "description": "as §1"}, "Phosphodiesterase 5": {"molecular_target": "T32, Phosphodiesterase 5 (Homo sapiens, UniProt O76074)", "T32 construct": "gene PDE5A", "experiment": "biochemical", "design": "enzyme inhibition panel, single concentration", "settings": "read-out: Inhibition (%)", "description": "as §1"}}}
{"smiles": "O=C(c1cccnc1-c1ccncc1)N1CCC(O)(Cc2ccccc2)CC1", "note": "[soticlestat, (4-benzyl-4-hydroxypiperidin-1-yl)(2,4′-bipyridin-3-yl) methanone]", "values": [{"measurement": "inhibition at 10 µM", "setting": "Histamine H2", "result": 5, "unit": "%"}, {"measurement": "inhibition at 10 µM", "setting": "Muscarinic M1", "result": 7, "unit": "%"}, {"measurement": "inhibition at 10 µM", "setting": "Opiate μ (OP3, MOP)", "result": -1, "unit": "%"}, {"measurement": "inhibition at 10 µM", "setting": "Dopamine transporter", "result": 0, "unit": "%"}, {"measurement": "inhibition at 10 µM", "setting": "Bradykinin B1", "result": 13, "unit": "%"}, {"measurement": "inhibition at 10 µM", "setting": "Angiotensin AT2", "result": -10, "unit": "%"}, {"measurement": "inhibition at 10 µM", "setting": "[1]", "result": -1, "unit": "%"}, {"measurement": "inhibition at 10 µM", "setting": "Adenosine A2B", "result": 20, "unit": "%"}, {"measurement": "inhibition at 10 µM", "setting": "Histamine H1", "result": -2, "unit": "%"}, {"measurement": "inhibition at 10 µM", "setting": "Adrenergic β2", "result": 6, "unit": "%"}, {"measurement": "inhibition at 10 µM", "setting": "Muscarinic M3", "result": 12, "unit": "%"}, {"measurement": "inhibition at 10 µM", "setting": "5-HT2B", "result": 5, "unit": "%"}, {"measurement": "inhibition at 10 µM", "setting": "Opiate κ (OP2, KOP)", "result": -1, "unit": "%"}, {"measurement": "inhibition at 10 µM", "setting": "Adrenergic β3", "result": -7, "unit": "%"}, {"measurement": "inhibition at 10 µM", "setting": "Cannabinoid CB1", "result": -5, "unit": "%"}, {"measurement": "inhibition at 10 µM", "setting": "Dopamine D1", "result": 5, "unit": "%"}, {"measurement": "inhibition at 10 µM", "setting": "Dopamine D3", "result": 5, "unit": "%"}, {"measurement": "inhibition at 10 µM", "setting": "Adrenergic β1", "result": -4, "unit": "%"}, {"measurement": "inhibition at 10 µM", "setting": "GABA B1A", "result": 6, "unit": "%"}, {"measurement": "inhibition at 10 µM", "setting": "GABA B1B", "result": 8, "unit": "%"}, {"measurement": "inhibition at 10 µM", "setting": "Dopamine D4.2", "result": 0, "unit": "%"}, {"measurement": "inhibition at 10 µM", "setting": "Muscarinic M2", "result": 1, "unit": "%"}, {"measurement": "inhibition at 10 µM", "setting": "Vasopressin V1A", "result": -11, "unit": "%"}, {"measurement": "inhibition at 10 µM", "setting": "Serotonin transporter", "result": 6, "unit": "%"}, {"measurement": "inhibition at 10 µM", "setting": "Dopamine D2L", "result": 15, "unit": "%"}, {"measurement": "IC50", "setting": "[2]", "result": 4.5, "unit": "nM"}, {"measurement": "inhibition at 10 µM", "setting": "[3]", "result": 0, "unit": "%"}, {"measurement": "inhibition at 10 µM", "setting": "Cyclooxygenase (COX-2)", "result": 4, "unit": "%"}, {"measurement": "inhibition at 10 µM", "setting": "[4]", "result": -4, "unit": "%"}, {"measurement": "inhibition at 10 µM", "setting": "MAO A", "result": 1, "unit": "%"}, {"measurement": "inhibition at 10 µM", "setting": "Cyclooxygenase (COX-1)", "result": -14, "unit": "%"}, {"measurement": "inhibition at 10 µM", "setting": "MAO B", "result": 0, "unit": "%"}, {"measurement": "inhibition at 10 µM", "setting": "Phosphodiesterase 5", "result": -2, "unit": "%"}]}
